The values below come from patent US20040247696A1, “Methods of using electron active compounds for managing conditions afflicting mammals” (priority 2001, published 2004).

In one series the test system is coliform. Put plainly: AOAC culture test, coliform-contaminated water. Format: cell-based. The following applies: about 2 PPM XeF2 + about 20 PPM KPS, pH about 7, 37.4 cfu/mL. Here is the method:
These and other aspects of the present invention may be more fully understood with reference to the following examples, which are merely illustrative of the preferred embodiments of the present invention, and are not to be construed as limiting the invention, the scope of which is defined by the appended claims. Unless otherwise indicated, antimicrobial evaluations of the various fluorinator compounds tested were performed versus control samples in cultures in accordance with the protocol as set forth in AOAC (15th) 1990:965:13 at colony densities indicated in the examples.
Contaminated water was prepared and measured to have AOAC coliform counts averaging 37.4 colony forming units per milliliter (cfu/mL). The water was treated by first adding crystal potassium monopersulfate (KPS) stabilizer, commercially available from E.I. DuPont de Nemours & Co. Corp. as OXONE®, and xenon difluoride (XeF2). The concentration in solution of the KPS and XeF2 was about 20 PPM and about 2 PPM respectively, and the pH of the treated solution was about 7.

A further series relates to salmonella. Put plainly: AOAC culture test, salmonella-contaminated aqueous solutions. It is filed as cell-based. The conditions noted are these: ten minutes exposure. Here is the method:
Unless otherwise indicated, antimicrobial evaluations of the various fluorinator compounds tested were performed versus control samples in cultures in accordance with the protocol as set forth in AOAC (15th) 1990:965:13 at colony densities indicated in the examples.
Aqueous solutions were prepared having a salmonella contamination at a cell density of about 500,000 cfu/mL. Two solutions of XeF2 were prepared: one as a 1% solution in 85% phosphoric acid stabilizer, and a second solution containing no stabilizer. The materials were cultured versus controls at concentrations of about 2 ppm and about 4 ppm XeF2 and at a pH of about 9.

The conditions of series [1]: animals not prone to silver allergies. The text has this:
Preferred routes of administration include topically and application to mucosa. Application can be made, for example, digitally or using a suitable applicator.

Consider `F[Xe]F` [XeF2, xenon difluoride], for which the coliform inhibition result is listed as “about 73%” with coliform (5 minutes exposure) and “about 77%” in the series with coliform (10 minutes exposure). Besides, the salmonella inhibition result is given as “about 13.2%” with salmonella (about 2 ppm XeF2, pH about 9, about 500,000 cfu/mL) and “about 96.4%” with salmonella (about 4 ppm XeF2, pH about 9, about 500,000 cfu/mL).
Consider `[Ag+].[Ag+].[Ag+].[Ag+].[O-2].[O-2].[O-2].[O-2]` [Ag4O4, tetrasilver tetroxide], for which the “Ill effects or irritation on application to the skin” value in series [1] is reported as “without any ill effects or evidence of irritation”.
